The experiment deals with 253994-281-T-J1-PDC KRAS-mutant spheroids with HUVEC/MSC, viability. In words: Anticancer human tumor 253994-281-T-J1-PDC patient-derived colorectal carcinoma cell line growth inhibition [KRAS2]. To be noted: for viability, T/C: stronger effect = lower value. In short, it runs like this:
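KRAS-mutant tumor cells were grown as spheroids with HUVEC endothelial cells and human MSCs as stroma. Targeted agents were tested alone and with KRAS pathway inhibitors. Doses started at or near clinical Cmax, or 10 microM, descending half-log.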

Setting [1] is: curve of first compound, second compound 0.1 µM.
The mark [2] stands for this setting: curve of first compound, second compound 0.316 µM.
Where [3] appears, read: curve of first compound, second compound 1 µM.
Setting [4] is: curve of first compound, second compound 3.16 µM.
[5] abbreviates: curve of first compound, second compound 10 µM.
[6] abbreviates: second compound 0.1 µM, first compound 0.0316 µM.
Where [7] appears, read: second compound 0.1 µM, first compound 0.1 µM.
[8] abbreviates: second compound 0.1 µM, first compound 0.316 µM.
Setting [9] is: second compound 0.1 µM, first compound 1 µM.
Setting [10] is: second compound 0.1 µM, first compound 3.16 µM.
Setting [11] is: second compound 0.316 µM, first compound 0.0316 µM.
Where [12] appears, read: second compound 0.316 µM, first compound 0.1 µM.
Where [13] appears, read: second compound 0.316 µM, first compound 0.316 µM.
The mark [14] stands for this setting: second compound 0.316 µM, first compound 1 µM.
Where [15] appears, read: second compound 0.316 µM, first compound 3.16 µM.
Setting [16] is: second compound 1 µM, first compound 0.0316 µM.
Setting [17] is: second compound 1 µM, first compound 0.1 µM.
[18] abbreviates: second compound 1 µM, first compound 0.316 µM.
[19] abbreviates: second compound 1 µM, first compound 1 µM.
Setting [20] is: second compound 1 µM, first compound 3.16 µM.
Setting [21] is: second compound 3.16 µM, first compound 0.0316 µM.
Where [22] appears, read: second compound 3.16 µM, first compound 0.1 µM.
Setting [23] is: second compound 3.16 µM, first compound 0.316 µM.
Setting [24] is: second compound 3.16 µM, first compound 1 µM.
[25] abbreviates: second compound 3.16 µM, first compound 3.16 µM.
[26] abbreviates: second compound 10 µM, first compound 0.0316 µM.
The mark [27] stands for this setting: second compound 10 µM, first compound 0.1 µM.
Where [28] appears, read: second compound 10 µM, first compound 0.316 µM.
Setting [29] is: second compound 10 µM, first compound 1 µM.
Setting [30] is: second compound 10 µM, first compound 3.16 µM.
[31] abbreviates: second compound 0.1 µM, first compound 10 µM.
Where [32] appears, read: second compound 0.316 µM, first compound 10 µM.
Where [33] appears, read: second compound 1 µM, first compound 10 µM.
The mark [34] stands for this setting: second compound 3.16 µM, first compound 10 µM.
Setting [35] is: second compound 10 µM, first compound 10 µM.

Several values for one entry are separate records, joined by “and”; a condition that tells them apart may be missing. Equal values may be shown once.
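Also: spheroids exposed to agents for seven days before readout.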
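For viability, T/C in this document: percent of DMSO vehicle control viability.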

As usually defined, the IC50 is the point on the concentration scale where inhibition reaches its midpoint. What is called viability, T/C is the ratio of treated to control. With `CC(=O)OC12COC1CC(O)C1(C)C(=O)C(O)C3=C(C)C(OC(=O)C(O)C(NC(=O)OC(C)(C)C)c4ccccc4)CC(O)(C(OC(=O)c4ccccc4)C21)C3(C)C` (configuration not stated) + CC1OCC2(CCN(c3cnc(Sc4ccnc(N)c4Cl)c(N)n3)CC2)C1N, the half-inhibitory concentration (IC50) is, setting by setting: under setting [1], 0.0204 µM; under setting [2], < 0.01 µM; under setting [3], 0.0271 µM; under setting [4], < 0.01 µM; under setting [5], < 0.01 µM. Besides, the viability, T/C runs as follows: (second compound 0.1 µM, first compound 0.01 µM) 68.7%; under setting [6], 39.5%; under setting [7], 26.3%; under setting [8], 23.2%; under setting [9], 27.5%; under setting [10], 21.8%. Moreover, the viability, T/C by setting is: (second compound 0.316 µM, first compound 0.01 µM) 48.8%; under setting [11], 29.2%; under setting [12], 18.4%; under setting [13], 19.2%; under setting [14], 20.3%; under setting [15], 18.1%. The viability, T/C (second compound 1 µM, first compound 0.01 µM) is 92%; the viability, T/C under setting [16] is 42%; the viability, T/C under setting [17] was 31.2%; the viability, T/C under setting [18] was 24%; the viability, T/C under setting [19] was 21%; the viability, T/C under setting [20] was 21.7%. In addition, the viability, T/C runs as follows: (second compound 3.16 µM, first compound 0.01 µM) 19.8%; under setting [21], 18%; under setting [22], 11.9%; under setting [23], 11.7%; under setting [24], 14.8%; under setting [25], 12.5%. Moreover, the viability, T/C reads like this: (second compound 10 µM, first compound 0.01 µM) 20%; under setting [26], 14.4%; under setting [27], 13.3%; under setting [28], 12.8%; under setting [29], 10.5%; under setting [30], 11.8%.
On to `Cn1nccc1Nc1nccc(-c2cc3c(s2)C(C)(C)N(CCN2CCOCC2)C3=O)n1` + CC1OCC2(CCN(c3cnc(Sc4ccnc(N)c4Cl)c(N)n3)CC2)C1N, for which the IC50 is 1.46 µM under setting [1]; 0.745 µM under setting [2]; 0.28 µM under setting [3]; 0.11 µM under setting [4]; < 0.0316 µM under setting [5]. The viability, T/C was 81.1% under setting [6]; 82.9% under setting [7]; 74.9% under setting [8]; 59% under setting [9]; 32.3% under setting [10]; 18.9% under setting [31]. Moreover, the viability, T/C is 77% under setting [11]; 79.2% under setting [12]; 63.1% under setting [13]; 45.6% under setting [14]; 26% under setting [15]; 17.9% under setting [32]. The viability, T/C runs as follows: under setting [16], 68.3%; under setting [17], 64.6%; under setting [18], 48.3%; under setting [19], 22.5%; under setting [20], 13.2%; under setting [33], 15%. Also, the viability, T/C was 60.8% under setting [21]; 50.2% under setting [22]; 34.8% under setting [23]; 15.3% under setting [24]; 10% under setting [25]; 8.2% under setting [34]. The viability, T/C was 39.8% under setting [26]; 28.4% under setting [27]; 15.4% under setting [28]; 8.1% under setting [29]; 4.83% under setting [30]; 6.14% under setting [35].
Regarding `CC1OCC2(CCN(c3cnc(Sc4ccnc(N)c4Cl)c(N)n3)CC2)C1N` (configuration not stated) + C=CC(=O)N1CCN(c2nc(=O)n(-c3c(C)ccnc3C(C)C)c3nc(-c4c(O)cccc4F)c(F)cc23)C(C)C1, the IC50 was 8.95 µM under setting [1]; 6.56 µM under setting [2]; > 10 µM under setting [3]; 9.85 µM under setting [4]; > 10 µM under setting [5]. Further, the viability, T/C under setting [6] was 89.8%; the viability, T/C under setting [7] is 87.4%; the viability, T/C under setting [8] was 81.8%; the viability, T/C under setting [9] was 82.3%; the viability, T/C under setting [10] was 70.7%; the viability, T/C under setting [31] was 47.6%. Also, the viability, T/C by setting is: under setting [11], 89.5%; under setting [12], 88.3%; under setting [13], 89.3%; under setting [14], 70.6%; under setting [15], 60.4%; under setting [32], 44.6%. Besides, the viability, T/C runs as follows: under setting [16], 84.2%; under setting [17], 90.5%; under setting [18], 77%; under setting [19], 82.7%; under setting [20], 60.6%; under setting [33], 51.6%. For the same molecule, the viability, T/C under setting [21] was 80.5%; the viability, T/C under setting [22] was 74.9%; the viability, T/C under setting [23] was 75.6%; the viability, T/C under setting [24] was 72.4%; the viability, T/C under setting [25] was 63.4%; the viability, T/C under setting [34] was 49.8%. Also, the viability, T/C was 85.1% under setting [26]; 75.2% under setting [27]; 74% under setting [28]; 69.6% under setting [29]; 57% under setting [30]; 51.5% under setting [35].
In the case of `CCN1CCN(Cc2ccc(Nc3ncc(F)c(-c4cc(F)c5nc(C)n(C(C)C)c5c4)n3)nc2)CC1`, the viability, T/C (compound 0.00316 µM) was 101% and 90.3% and 102% (2×); the viability, T/C (compound 0.01 µM) was 99.6% [middle of 5 runs]; the viability, T/C (compound 0.0316 µM) is 89.5% [middle of 5 runs]; the viability, T/C (compound 0.1 µM) is 84.2% [middle of 5 runs]; the viability, T/C (compound 0.316 µM) was 77.4% [middle of 5 runs]; the viability, T/C (compound 1 µM) was 51.2% [middle of 5 runs]. In addition, the IC50 (curve of compound) is 0.852 µM and > 1 µM and 0.983 µM.
With `Cn1nccc1Nc1nccc(-c2cc3c(s2)C(C)(C)N(CCN2CCOCC2)C3=O)n1` + CNCc1ccccc1-c1csc(C(C)Nc2nc(C)nc3cc(OC)c(OC)cc23)c1, the 50% inhibitory concentration (IC50) reads like this: under setting [1], 2.14 µM; under setting [2], 1.52 µM; under setting [3], 0.863 µM; under setting [4], < 0.0316 µM; under setting [5], < 0.0316 µM. Moreover, the viability, T/C under setting [6] was 97.5%; the viability, T/C under setting [7] was 102%; the viability, T/C under setting [8] is 87.6%; the viability, T/C under setting [9] was 74.6%; the viability, T/C under setting [10] is 37.1%; the viability, T/C under setting [31] is 23.8%. The viability, T/C is 106% under setting [11]; 89.2% under setting [12]; 84% under setting [13]; 60.7% under setting [14]; 31.8% under setting [15]; 19.4% under setting [32]. Moreover, the viability, T/C under setting [16] is 87.7%; the viability, T/C under setting [17] was 73.2%; the viability, T/C under setting [18] was 67.9%; the viability, T/C under setting [19] is 49.8%; the viability, T/C under setting [20] was 24%; the viability, T/C under setting [33] was 10%. The viability, T/C was 44.4% under setting [21]; 46.3% under setting [22]; 29.3% under setting [23]; 0.46% under setting [24]; 0.39% under setting [25]; 0.26% under setting [34]. Also, the viability, T/C was 0.25% under setting [26]; 0.16% under setting [27]; 0.15% under setting [28]; 0.14% under setting [29]; 0.39% under setting [30]; 0.2% under setting [35].
With `CC1(C)CCC(CN2CCN(c3ccc(C(=O)NS(=O)(=O)c4ccc(NCC5CCOCC5)c([N+](=O)[O-])c4)c(Oc4cnc5[nH]ccc5c4)c3)CC2)=C(c2ccc(Cl)cc2)C1`, the viability, T/C reads like this: (compound 0.0316 µM) 94.2% [middle of 5 runs]; (compound 0.1 µM) 97.9% [middle of 5 runs]; (compound 0.316 µM) 90.5% [middle of 5 runs]; (compound 1 µM) 91.5% [middle of 5 runs]; (compound 3.16 µM) 84.5% [middle of 5 runs]. Besides, the IC50 (curve of compound) is > 10 µM.
For the molecule `C=CC(=O)N1CCN(c2nc(=O)n(-c3c(C)ccnc3C(C)C)c3nc(-c4c(O)cccc4F)c(F)cc23)C(C)C1` (configuration not stated), the viability, T/C (compound 0.316 µM) was 93.1% [middle of 17 runs]. For the same molecule, the IC50 by setting is: (compound alone, run of 08/19/2021) > 10 µM; (compound alone, run of 08/26/2021) > 10 µM; (compound alone, run of 09/02/2021) > 10 µM.

The values are drawn from PubChem BioAssay AID1963874 (Molecular Pharmacology Branch, DTP, NCI, 2024).
